Measurements: patent publication US20110152332A1, “Pesticidal Heterocyclic Compounds” (Bayer CropScience AG, priority 2009, published 2011)

Columns and labels:
Format in all cases: in vivo
[1] = test system: Cucurbit leaf beetle (Aulacophora femoralis); test: Test against cucurbit leaf beetle (Aulacophora femoralis), leaf dip; details: active compound concentration 100 ppm; second instar larvae on dipped cucumber leaves; after 7 days
Protocol: (§1) Unless described otherwise, the test solutions were prepared as follows:
(§2) The active compound, 1 part by weight of the active compound was admixed with the solvent in the above described amount which contains the emulsifying agent in the above described amount. The mixture was then diluted with water to specific concentration.
(§3) In order to prepare the test solution containing the active compound, 1 part by weight of the active compound was admixed with 3 parts by weight of the solvent dimethyl formamide which contains 1 part by weight of the emulsifying agent polyoxyethylene alkylphenyl ether. This mixture is then diluted with water to the specific concentration.
(§4) Solvent: dimethyl formamide, 3 parts by weight; emulsifying agent: polyoxyethylene alkylphenyl ether, 1 part by weight
Leaves of cucumber were immersed in the test solution at the appropriate concentration, and the leaves were dried in air. The leaves were then put in a plastic cup containing sterilized black soil and five Aulacophora femoralis at second instar larvae were released in the cup. The cups were placed in a temperature-controlled chamber at 25° C. After 7 days, the number of dead larvae was counted, and thus the insecticidal activity was calculated. An insecticidal activity of 100% means that all larvae were killed, whereas an insecticidal activity of 0% means that no larva was killed.

Ctenocephalides felis = test: Ctenocephalides felis-test (CTECFE); details: application rate 100 ppm in cattle blood, adult unfed fleas, after 2 days
Protocol: (§5) Solvent: dimethyl sulfoxide
To produce a suitable preparation of active compound, 10 mg of active compound are dissolved in 0.5 ml solvent, and the concentrate is diluted with cattle blood to the desired concentration. Approximately 20 adult unfed (Ctenocephalides felis) are placed in flea chambers. The blood chamber, sealed with parafilm on the bottom, are filled with cattle blood supplied with compound solution and placed on top of the flea chamber, so that the fleas are able to suck the blood. The blood chamber is heated to 37° C. whereas the flea chamber is kept at room temperature. After 2 days mortality in % is determined. 100% means that all the fleas have been killed; 0% means that none of the fleas have been killed.

Boophilus microplus = Boophilus microplus (dip); details: application rate 100 ppm; adult engorged female ticks dipped one minute; after 7 days
Protocol: Solvent: dimethylsulfoxid
To produce a suitable preparation of active compound, 10 mg of active compound are dissolved in 0.5 ml solvent, and the concentrate is diluted with water to the desired concentration. Eight to ten adult engorged female Boophilus microplus ticks are placed in perforated plastic beakers and immersed in aqueous compound solution for one minute. Ticks are transferred to a filter paper in a plastic tray. Egg deposition of fertile eggs is monitored after. After 7 days mortality in % is determined. 100% means that all the ticks have been killed; 0% means that none of the ticks have been killed.

[2] = test system: Tobacco cutworm (Spodoptera litura) larvae; test: Test against tobacco cutworm (Spodoptera litura) larvae, leaf dip; details: active compound concentration 100 ppm; third instar larvae on dipped sweet potato leaves; after 7 days
Protocol: as §1, §2, §3, §4
Leaves of sweet potato were immersed in the test solution at the appropriate concentration, and the leaves were dried in air. The leaves were then placed in a petri dish having a diameter of 9 cm, and ten Spodoptera litura at third instar larvae were released therein. The petri dishes were placed in a temperature-controlled chamber at 25° C. After 2 days and 4 days more sweet potato leaves were added. After 7 days, the number of dead larvae was counted to calculate the insecticidal activity. An insecticidal activity of 100% means that all larvae were killed, whereas an insecticidal activity of 0% means that no larva was killed. In the current test, the results of two petri dishes for each treatment were averaged.

Musca domestica = test: Musca domestica-test; details: application rate 100 ppm, adults, sugar/compound soaked sponge, after 2 days
Protocol: as §5
To produce a suitable preparation of active compound, 10 mg of active compound are dissolved in 0.5 ml solvent, and the concentrate is diluted with water to the desired concentration. Prior to the assay, a piece of kitchen sponge is soaked with a mixture of sugar and compound solution and placed into a container. 10 adults (Musca domestica) are placed into the container and closed with a perforated lid. After 2 days mortality in % is determined. 100% means that all the flies have been killed; 0% means that none of the flies have been killed.

[3] = test system: Lucilia cuprina 1st instar larvae; test: Lucilia cuprina-test (LUCICU 48 h); details: application rate 100 ppm, 1st instar larvae on minced horse meat, after 2 days, read-out: activity (percentage of larval mortality)
Protocol: Species: Lucilia cuprina 1st instar larvae (age 24 hrs)
as §5
10 mg active compound are dissolve in 0.5 ml Dimethylsulfoxid. Serial dilutions are made to obtain the desired rates. Approximately 20 Lucilia cuprina 1st instar larvae are transferred into a test tube containing 1 cm^3 of minced horse meat and 0.5 ml aqueous dilution of test compound. After 2 days percentage of larval mortality are recorded. 100% efficacy=all larvae are killed, […].

[4] = test system: Two-spotted spider mite (Tetranychus urticae); test: Test against two-spotted spider mite (Tetranychus urticae), spray; details: active compound concentration 100 ppm; adult mites on kidney bean, sprayed; after 7 days
Protocol: as §1, §2, §3, §4
50 to 100 adult mites of Tetranychus urticae were inoculated to leaves of kidney bean at two-leaf stage planted in a pot of 6 cm in diameter. After one day, test solution at the appropriate concentration was sprayed thereon in a sufficient amount using a spray gun. After the spraying, the plant pot was placed inside a greenhouse, and after 7 days, the acaricidal activity was calculated. An acaricidal activity of 100% means that all mites were killed, whereas an acaricidal activity of 0% means that no mite was killed.

Row | SMILES | insecticidal activity [1] | activity (mortality in %) (Ctenocephalides felis) | activity (mortality in %) (Boophilus microplus) | insecticidal activity [2] | mortality at 100 ppm (Musca domestica; Musca domestica, 48 h) | mortality at 100 ppm (Ctenocephalides felis; Ctenocephalides felis, 48 h) | mortality at 100 ppm [3] | acaricidal activity [4] | activity (mortality in %) (Musca domestica)
1 | CC(=O)NCc1ccc(N2CC(c3cc(Cl)cc(Cl)c3)(C(F)(F)F)OC2=O)cc1C(F)(F)F (centres unmarked) [Compound 1-2] | 100% | 95% | 80% | 100% |  |  |  |  | 
2 | CCC(=O)NCc1ccc(N2CC(c3cc(Cl)cc(Cl)c3)(C(F)(F)F)OC2=O)cc1C(F)(F)F (centres unmarked) [Compound 1-3, N-{4-[5-(3,5-dichlorophenyl)-2-oxo-5-(trifluoromethyl)-1,3-oxazolin-3-yl]-2-(trifluoromethyl)benzyl}propane amide] | 100% |  |  | 100% | 100% | 95% | 100% | 100% | 
3 | O=C(CC(F)(F)F)NCc1ccc(N2CC(c3cc(Cl)cc(Cl)c3)(C(F)(F)F)OC2=O)cc1C(F)(F)F (centres unmarked) [Compound 1-7] | 100% | 95% |  | 100% |  |  |  | 100% | 
4 | CC(=O)NCc1ccc(N2CC(c3cc(Cl)c(Cl)c(Cl)c3)(C(F)(F)F)OC2=O)cc1C(F)(F)F (centres unmarked) [Compound 1-16] | 100% |  | 80% | 100% |  |  |  | 100% | 90%
5 | CCC(=O)NCc1ccc(N2CC(c3cc(Cl)c(Cl)c(Cl)c3)(C(F)(F)F)OC2=O)cc1C(F)(F)F (centres unmarked) [Compound 1-17] | 100% |  | 100% | 100% |  |  |  | 100% | 90%
6 | CCC(=O)NCc1ccc(N2CC(c3cc(Cl)c(Cl)c(Cl)c3)(C(F)(F)F)OC2=O)cc1 (centres unmarked) [Compound 1-59] | 100% | 95% |  | 100% |  |  |  |  | 
7 | CCC(=O)NCc1ccc(N2CC(c3cccc(C(F)(F)F)c3)(C(F)(F)F)OC2=O)cc1C(F)(F)F (centres unmarked) [Compound 1-73] | 100% |  |  | 100% |  |  |  |  | 80%
8 | O=C(NCc1ccc(N2CC(c3cc(C(F)(F)F)cc(C(F)(F)F)c3)(C(F)(F)F)OC2=O)cc1Cl)C1CC1 (centres unmarked) [Compound 1-145] | 100% | 95% |  | 100% |  |  |  | 100% | 80%
9 | O=C(CC(F)(F)F)NCc1ccc(N2CC(c3cc(C(F)(F)F)cc(C(F)(F)F)c3)(C(F)(F)F)OC2=O)cc1Cl (centres unmarked) [Compound 1-147] | 100% | 95% |  | 100% |  |  |  | 100% | 
10 | Cc1cc(N2CC(c3cc(C(F)(F)F)cc(C(F)(F)F)c3)(C(F)(F)F)OC2=O)ccc1CNC(=O)C1CC1 (centres unmarked) [Compound 1-159] | 100% | 95% |  | 100% |  |  |  |  | 90%
11 | Cc1cc(N2CC(c3cc(C(F)(F)F)cc(C(F)(F)F)c3)(C(F)(F)F)OC2=O)ccc1CNC(=O)CC(F)(F)F (centres unmarked) [Compound 1-161] | 100% | 80% |  | 100% |  |  |  |  | 
12 | Cc1cc(N2CC(c3cc(C(F)(F)F)cc(C(F)(F)F)c3)(C(F)(F)F)OC2=O)ccc1CNC(=O)C[S+](C)[O-] (centres unmarked) [Compound 1-163] |  | 80% |  |  |  |  |  |  | 
13 | O=C(CC1CC1)NC1CCc2cc(N3CC(c4cc(Cl)c(Cl)c(Cl)c4)(C(F)(F)F)OC3=O)ccc21 (centres unmarked) [Compound 4-34] | 100% |  |  | 100% |  |  |  | 100% | 
14 | O=C(CC(F)(F)F)NC1CCc2cc(N3CC(c4cc(Cl)c(Cl)c(Cl)c4)(C(F)(F)F)OC3=O)ccc21 (centres unmarked) [Compound 4-35] | 100% |  |  | 100% |  |  |  | 100% | 
